Reference: ChEMBL document CHEMBL1152232, “Muscarinic acetylcholine receptor antagonists: SAR and optimization of tyrosine ureas” (Bioorg Med Chem Lett, 2008)

Tests used:
[1] = target: T1, Muscarinic acetylcholine receptor M2 (Homo sapiens, UniProt P08172); assay: Antagonist activity at human recombinant muscarinic M2 receptor expressed in CHO cells coexpressing chimeric G protein Gqi5 assessed as inhibition of acetylcholine-induced intracellular Ca2+ mobilization by FLIPR assay; type: functional, cell-based
T1 sequence (P08172 whole entry): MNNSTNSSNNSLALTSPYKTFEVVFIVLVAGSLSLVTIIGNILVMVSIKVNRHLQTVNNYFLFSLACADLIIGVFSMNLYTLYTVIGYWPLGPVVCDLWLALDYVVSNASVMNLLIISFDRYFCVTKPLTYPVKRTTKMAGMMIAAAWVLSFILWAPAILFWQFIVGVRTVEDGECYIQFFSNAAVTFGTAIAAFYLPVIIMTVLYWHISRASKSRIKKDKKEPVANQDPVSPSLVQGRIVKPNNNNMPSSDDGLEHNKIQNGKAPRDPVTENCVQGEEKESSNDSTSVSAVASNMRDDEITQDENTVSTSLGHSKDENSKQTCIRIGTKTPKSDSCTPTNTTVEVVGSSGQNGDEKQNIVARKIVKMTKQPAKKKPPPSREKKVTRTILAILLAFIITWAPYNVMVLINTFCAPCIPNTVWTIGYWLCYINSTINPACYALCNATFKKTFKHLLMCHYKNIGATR

[2] = target: Muscarinic acetylcholine receptors; M2 & M3 (Homo sapiens) (UniProt P20309+P08172); assay: Selectivity for human recombinant muscarinic M3 receptor over human recombinant muscarinic M2 receptor
Muscarinic acetylcholine receptors; M2 & M3 (Homo sapiens), sequence (P20309 whole entry, looked up, one chain of several): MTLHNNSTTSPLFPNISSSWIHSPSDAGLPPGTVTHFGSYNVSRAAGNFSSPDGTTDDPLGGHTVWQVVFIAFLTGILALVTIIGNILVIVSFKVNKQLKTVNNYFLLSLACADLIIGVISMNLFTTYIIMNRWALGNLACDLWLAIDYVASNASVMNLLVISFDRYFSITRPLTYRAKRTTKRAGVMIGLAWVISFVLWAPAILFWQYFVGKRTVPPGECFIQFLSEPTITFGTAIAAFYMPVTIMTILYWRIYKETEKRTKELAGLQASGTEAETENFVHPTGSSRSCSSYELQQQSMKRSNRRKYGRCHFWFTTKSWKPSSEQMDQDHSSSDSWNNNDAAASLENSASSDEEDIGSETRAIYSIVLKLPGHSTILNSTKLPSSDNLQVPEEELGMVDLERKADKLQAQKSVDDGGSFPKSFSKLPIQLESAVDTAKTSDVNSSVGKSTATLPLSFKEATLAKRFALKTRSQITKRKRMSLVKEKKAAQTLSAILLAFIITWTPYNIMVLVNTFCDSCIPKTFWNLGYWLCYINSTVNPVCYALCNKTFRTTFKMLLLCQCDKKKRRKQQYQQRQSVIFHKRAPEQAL

[3] = target: T2, Muscarinic acetylcholine receptor M1 (Homo sapiens, UniProt P11229); assay: Antagonist activity at human recombinant muscarinic M1 receptor expressed in CHO cells assessed as inhibition of acetylcholine-induced intracellular Ca2+ mobilization by FLIPR assay; type: functional, cell-based
T2 sequence (P11229 whole entry): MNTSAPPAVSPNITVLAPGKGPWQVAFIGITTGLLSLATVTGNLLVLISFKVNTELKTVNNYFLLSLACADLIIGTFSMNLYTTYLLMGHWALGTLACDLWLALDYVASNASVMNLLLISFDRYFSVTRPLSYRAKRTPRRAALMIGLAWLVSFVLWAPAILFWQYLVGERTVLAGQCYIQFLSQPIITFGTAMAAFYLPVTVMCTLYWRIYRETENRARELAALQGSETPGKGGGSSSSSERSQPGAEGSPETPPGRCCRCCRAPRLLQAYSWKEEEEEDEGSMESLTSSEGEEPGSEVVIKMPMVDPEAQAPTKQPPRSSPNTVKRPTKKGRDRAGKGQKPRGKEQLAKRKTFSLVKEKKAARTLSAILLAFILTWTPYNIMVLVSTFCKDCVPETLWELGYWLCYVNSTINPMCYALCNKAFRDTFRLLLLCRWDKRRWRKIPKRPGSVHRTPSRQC

[4] = target: Muscarinic acetylcholine receptor M3 (Homo sapiens, UniProt P20309); assay: Antagonist activity at human recombinant muscarinic M3 receptor expressed in CHO cells assessed as inhibition of acetylcholine-induced intracellular Ca2+ mobilization by FLIPR assay; type: functional, cell-based
Muscarinic acetylcholine receptor M3, sequence (P20309 whole entry): as the sequence (P20309 whole entry, looked up, one chain of several) above

[5] = target: Muscarinic acetylcholine receptor M1 and M3 (Homo sapiens) (UniProt P20309+P11229); assay: Selectivity for human recombinant muscarinic M3 receptor over human recombinant muscarinic M1 receptor
Muscarinic acetylcholine receptor M1 and M3 (Homo sapiens), sequence (P20309 whole entry, looked up, one chain of several): as the sequence (P20309 whole entry, looked up, one chain of several) above

[6] = Permeability across artificial membrane; type: ADME; conditions: PAMPA; read-out: permeability

## CCOC(=O)c1ccc(NC(=O)N[C@@H](Cc2ccc(O)cc2)C(=O)NC2CCN(Cc3ccccc3OC)C2)cc1 (stereo partly specified)
[1]
  IC50: 158 nM
[2]
  Selectivity ratio: 10
[3]
  IC50: 1000 nM
[4]
  IC50: 50.1 nM
[5]
  Selectivity ratio: 100

## CC(C)OC(=O)c1ccc(NC(=O)N[C@@H](Cc2ccc(O)cc2)C(=O)N[C@H]2CCC[N+](C)(Cc3cccc(O)c3)C2)cc1.[I-] (stereo partly specified)
[6]
  Papp: < 0.3 ×10⁻⁶ cm/s

## CCOC(=O)c1ccc(NC(=O)N[C@@H](Cc2ccc(O)cc2)C(=O)NC2CCN(Cc3ccccc3)C2)cc1 (stereo partly specified)
[1]
  IC50: 200 nM
[2]
  Selectivity ratio: 10
[3]
  IC50: 2000 nM
[4]
  IC50: 15.8 nM
[5]
  Selectivity ratio: 100

## C=CC[N+]1(Cc2cccc(O)c2)CCC[C@H](NC(=O)[C@H](Cc2ccc(O)cc2)NC(=O)Nc2ccc(C(=O)OC(C)C)cc2)C1 (stereo partly specified)
[1]; read-out: pA2 (converted)
  Kb: 1.58 nM
[2]
  Selectivity ratio: > 10
[3]; read-out: pA2 (converted)
  Kb: 15.8 nM
[4]; read-out: pA2 (converted)
  Kb: 0.1 nM
[5]
  Selectivity ratio: 100

## CCOC(=O)c1ccc(NC(=O)N[C@@H](Cc2ccc(O)cc2)C(=O)NC2CCN(Cc3cccc(Cl)c3)C2)cc1 (stereo partly specified)
[1]
  IC50: 126 nM
[2]
  Selectivity ratio: 10
[3]
  IC50: 1260 nM
[4]
  IC50: 7.94 nM
[5]
  Selectivity ratio: 100

## CCOC(=O)c1ccc(NC(=O)N[C@@H](Cc2ccc(O)cc2)C(=O)NC2CCN(Cc3ccc4c(c3)OCO4)C2)cc1 (stereo partly specified)
[1]
  IC50: 200 nM
[2]
  Selectivity ratio: 10
[3]
  IC50: 1000 nM
[4]
  IC50: 31.6 nM
[5]
  Selectivity ratio: 100

## CCOC(=O)c1ccc(NC(=O)N[C@@H](Cc2ccc(O)cc2)C(=O)NC2CCN(Cc3cccc(C#N)c3)C2)cc1 (stereo partly specified)
[1]
  IC50: 100 nM
[2]
  Selectivity ratio: 10
[3]
  IC50: 251 nM
[4]
  IC50: 6.31 nM
[5]
  Selectivity ratio: 100

## CCOC(=O)c1ccc(NC(=O)N[C@@H](Cc2ccc(O)cc2)C(=O)NC2CCN(CC3CC3)C2)cc1 (stereo partly specified)
[1]
  IC50: 100 nM
[2]
  Selectivity ratio: 10
[3]
  IC50: 631 nM
[4]
  IC50: 25.1 nM
[5]
  Selectivity ratio: 100

## CC(C)OC(=O)c1ccc(NC(=O)N[C@@H](Cc2ccc(O)cc2)C(=O)NC2CCN(Cc3ccc(O)cc3)C2)cc1 (stereo partly specified)
[1]
  IC50: 79.4 nM
[2]
  Selectivity ratio: > 10
[3]
  IC50: 1000 nM
[4]
  IC50: 5.01 nM
[5]
  Selectivity ratio: 100
